Laboratory results reported in patent publication US12208080B2, “Compositions and methods for modulation of extracellular vesicle release and treatment of neurological disorders” (GEORGE MASON RESEARCH FOUNDATION, INC., priority 2018, dated 2025).

Tests used:
[1] = test system: HIV-1 infected primary macrophages; assay: RT-qPCR of EV-associated viral RNA from HIV-1 infected primary macrophages; format: cell-based; details: 1, 5, 10 uM
Description: FIGS. 11A-11B are graphs showing CBD lowers viral RNAs in EVs released from HIV-1 infected primary macrophages. Primary PBMCs were purchased (Precision For Medicine, Frederick, Md.) and cultured in vitro first with PMA/GM-CSF for 3 days to obtain macrophages, and were then infected with HIV-1 89.6 strain (MOI.1.0) for 12 days. The macrophages were treated with PMA and GM-CSF during the infection period (added every 3 days into the fresh media). On day 12, all cells were treated with cART (4 antivirals) and kept in culture for another 3 days. On day 15, media was removed and CBD was added for 5 days (1, 5, 10 μM; at 0 and 48 hours). Supernatants were then isolated and exosomes were enriched using NT80/82 beads overnight at 4° C. […]
To examine whether the same trend could be observed in a primary cell model, three independent HIV-1 infected primary macrophage cell cultures were treated with a titration of CBD (1, 5, and 10 uM). EVs were enriched from the extracellular supernatant using NT80/82 beads and analyzed for HIV-1 TAR and env (FIG. 11). […] To apply these findings to in vivo HIV-1 infection, total EVs were enriched from plasma samples from 15 individuals; 5 healthy donors, 5 HIV-1 positive donors, and 5 HIV-1 positive donors who used Cannabis, were trapped using NT80/82 particles and analyzed via Western blot for the presence of HIV-1 Nef protein.

[2] = test system: HIV-1 89.6 infected 3D neurospheres; assay: RT-qPCR of viral RNA transcripts in infected 3D neurospheres; format: cell-based
Description: FIGS. 22A-22D are graphs, gels, schematics, and images showing cannabidiol lowers viral transcripts in 3D neurospheres. A) Differential workflow of 3D neurospheres. B) Phase contrast microscopic images of three 3D neurospheres taken where scale bar=100 um. D) 3D neurospheres were treated±89.6 viral strain±cART (10 μM; Tenofovir, Emtricitabine, Lamuvidine, and Indinavir)±CBD titration (5 and 10 μM) and incubated for 7 days. RNA was isolated from the 3D neurospheres and supernatants, followed by RT-qPCR analysis for viral RNA transcripts TAR, TAR-gag, env. Student's t-test was used for statistical analysis, where *p-value≤0.05; **p-value≤0.01, ***p-value≤0.001.
Neural Progenitor Cells (NPCs; Cat: ACS-5003; ATCC) were grown using STEMdiff™ Neural Progenitor Medium (STEMCELL Technologies™) and differentiated into 3D neurospheres (1×10^5 cells/well) using DMEM:F12 (Cat: 30-2006; ATCC)+Neural Progenitor Cell Dopaminergic Differentiation Kit (Cat: ACS-3004; ATCC) for an incubation period of 14 d. Inverted microscopy using Zen imaging software (Zeiss) was used to develop phase contrast images. Neurospheres were infected with HIV-1 89.6 dual-tropic strain (MOI: 10) and 10 μL of Infectin™ (Virongy, LLC) with a total volume of 200 μL, followed by 48 h incubation period. Neurospheres were then gently washed with 1×PBS±treated twice with 10 μM cocktail (Lamivudine, Tenofovir, Emtricitabine, Indinavir)±treatment (every other day) with a titration of CBD (5 and 10 μM) for a seven-day incubation period. Neurospheres were lysed in 100 μL lysis buffer and total lysates were run on a 4-20% Tris-Glycine SDS-PAGE, followed by western blot assessment. For RT-qPCR analysis, RNA was isolated from neurospheres, followed by RT-qPCR analysis.
Next, the levels of intracellular viral RNA transcripts were assessed to determine the effects of CBD treatment on HIV-1 infected neurospheres. Prior to these experiments, the expression of relevant receptors in neurospheres were confirmed including Cannabinoid receptors CB1 and CB2, as well as the serotonin receptor 5-HT1A and the Vanilloid receptor which have been previously found to bind cannabinoids (FIG. 24). We then performed RT-qPCR analysis to quantify the expression of TAR, gag, and env.

[3] = CBD 10 μM with cART vs cART, 7 days, FIG. 22D lanes 3 vs 5

C=C(C)[C@@H]1CCC(C)=C[C@H]1c1c(O)cc(CCCCC)cc1O [CBD, 2-[1R-3-methyl-6R-(1-methylethenyl)-2-cyclohexen-1-yl]-5-pentyl-1,3-benzenediol]
TAR RNA within EVs ([1]; three primary macrophage cultures, FIG. 11A): statistically significant decrease | env RNA in secreted EVs ([1]; two out of three infected primary macrophages, FIG. 11B): statistically significant decreasing trend | TAR RNA [2, 3]: signification reduction | env RNA [2, 3]: signification reduction | gag RNA [2, 3]: signification reduction | altering viral transcripts in neurospheres ([2]; lower concentrated CBD treatment (5 μM)): low efficacy
